Measurements published in patent US7820623B2 (priority 2006, dated 2010).
Bridge positions count the residues as written; N and C are the ends. Peptide text beside a SMILES is read from it.

Tests used:
[1] = test system: thapsigargin-induced IFN-g production in human whole blood; type: cell-based; conditions: read-out: Analogue Activity (IC50) WB/IFNg
[2] = test system: thapsigargin-induced IL-2 production in human whole blood; conditions: read-out: Analogue Activity (IC50) WB/IL-2
human Kv1.3 = human Kv1.3 (Homo sapiens, UniProt P22001); type: cell-based; set-up: expressed in transfected cells
Sequence of human Kv1.3 (P22001 whole entry): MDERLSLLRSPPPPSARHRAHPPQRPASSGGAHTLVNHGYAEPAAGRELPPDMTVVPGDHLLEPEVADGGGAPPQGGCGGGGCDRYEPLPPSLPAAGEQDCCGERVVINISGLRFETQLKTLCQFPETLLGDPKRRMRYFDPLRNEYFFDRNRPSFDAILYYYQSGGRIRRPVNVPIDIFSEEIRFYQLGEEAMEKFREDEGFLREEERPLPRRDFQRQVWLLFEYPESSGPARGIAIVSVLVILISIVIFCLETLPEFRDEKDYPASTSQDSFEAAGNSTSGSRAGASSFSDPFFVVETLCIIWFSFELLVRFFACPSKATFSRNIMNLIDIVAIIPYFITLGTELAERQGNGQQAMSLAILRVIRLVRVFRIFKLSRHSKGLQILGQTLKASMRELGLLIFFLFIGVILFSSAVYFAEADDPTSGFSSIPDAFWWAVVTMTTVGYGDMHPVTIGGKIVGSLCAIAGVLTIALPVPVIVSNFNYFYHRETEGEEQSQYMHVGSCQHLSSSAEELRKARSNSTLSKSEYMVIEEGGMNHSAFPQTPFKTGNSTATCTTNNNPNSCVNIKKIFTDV

Structure (SMILES): CC[C@H](C)[C@@H]1NC(=O)[C@H](CCCCN)NC(=O)[C@@H](NC(=O)[C@H](CCCCN)NC(=O)[C@@H](NC(=O)[C@H](CC(N)=O)NC(=O)[C@@H](NC(=O)[C@@H](NC(=O)[C@@H](NC(=O)CN)C(C)C)[C@@H](C)CC)[C@@H](C)CC)C(C)C)CSSC[C@@H]2NC(=O)[C@H](CCCCN)NC(=O)CNC(=O)[C@H](Cc3ccccc3)NC(=O)[C@H](CCCNC(=N)N)NC(=O)[C@H](CCSC)NC(=O)CNC(=O)[C@H](C)NC(=O)[C@H](CCCCN)NC(=O)[C@H](CCCCN)NC(=O)[C@@H]3CSSC[C@@H](C(=O)N[C@H](C(=O)N4CCC[C@H]4C(=O)N[C@@H](CCCCN)C(=O)O)[C@@H](C)O)NC(=O)[C@H](C)NC(=O)[C@H](CSSC[C@H](NC(=O)[C@H](CCC(N)=O)NC(=O)[C@H](CCCNC(=N)N)NC(=O)[C@H](CO)NC1=O)C(=O)N[C@@H](CC(C)C)C(=O)N[C@@H](CCC(=O)O)C(=O)N1CCC[C@H]1C(=O)N3)NC(=O)[C@H](CCCCN)NC(=O)CNC(=O)[C@H](CC(N)=O)NC(=O)[C@H](CCSC)NC2=O [H34A] (H-GVIINVKCKISRQCLEPCKKAGMRFGKCMNGKCACTPK-OH; disulfide 8-28, 14-33, 18-35)
- IC50 [1]: 0.0573 nM
- IC50 [2]: 0.0725 nM
- Kv1.3 Selectivity (= Kv1.1/Kv.3 IC50) (human Kv1.3): 797

Structure (SMILES): CC[C@H](C)[C@@H]1NC(=O)[C@H](CCCCN)NC(=O)[C@@H](NC(=O)[C@H](CCCCN)NC(=O)[C@@H](NC(=O)[C@H](CC(N)=O)NC(=O)[C@@H](NC(=O)[C@@H](NC(=O)[C@@H](NC(=O)CN)C(C)C)[C@@H](C)CC)[C@@H](C)CC)C(C)C)CSSC[C@@H]2NC(=O)[C@H](CCCCN)NC(=O)CNC(=O)[C@H](Cc3ccccc3)NC(=O)[C@H](CCCNC(=N)N)NC(=O)[C@H](CCSC)NC(=O)CNC(=O)[C@H](C)NC(=O)[C@H](CCCCN)NC(=O)[C@H](CCCCN)NC(=O)[C@@H]3CSSC[C@@H](C(=O)N[C@H](C(=O)N4CCC[C@H]4C(=O)N[C@@H](CCCCN)C(=O)O)[C@@H](C)O)NC(=O)[C@H](CCC(=O)O)NC(=O)[C@H](CSSC[C@H](NC(=O)[C@H](CCC(N)=O)NC(=O)[C@H](CCCNC(=N)N)NC(=O)[C@H](CO)NC1=O)C(=O)N[C@@H](CC(C)C)C(=O)N[C@@H](CCC(=O)O)C(=O)N1CCC[C@H]1C(=O)N3)NC(=O)[C@H](CCCCN)NC(=O)CNC(=O)[C@H](CC(N)=O)NC(=O)[C@H](CCSC)NC2=O [H34E] (H-GVIINVKCKISRQCLEPCKKAGMRFGKCMNGKCECTPK-OH; disulfide 8-28, 14-33, 18-35)
- IC50 [1]: 2.38 nM
- IC50 [2]: 1.62 nM
- Kv1.3 Selectivity (= Kv1.1/Kv.3 IC50) (human Kv1.3): 30

Structure (SMILES): CC[C@H](C)[C@@H]1NC(=O)[C@H](CCCCN)NC(=O)[C@@H](NC(=O)[C@H](CCCCN)NC(=O)[C@@H](NC(=O)[C@H](CC(N)=O)NC(=O)[C@@H](NC(=O)[C@@H](NC(=O)[C@@H](NC(=O)CN)C(C)C)[C@@H](C)CC)[C@@H](C)CC)C(C)C)CSSC[C@@H]2NC(=O)[C@H](C)NC(=O)CNC(=O)[C@H](Cc3ccccc3)NC(=O)[C@H](CCCNC(=N)N)NC(=O)[C@H](CCSC)NC(=O)CNC(=O)[C@H](C)NC(=O)[C@H](CCCCN)NC(=O)[C@H](CCCCN)NC(=O)[C@@H]3CSSC[C@@H](C(=O)N[C@H](C(=O)N4CCC[C@H]4C(=O)N[C@@H](CCCCN)C(=O)O)[C@@H](C)O)NC(=O)[C@H](Cc4c[nH]cn4)NC(=O)[C@H](CSSC[C@H](NC(=O)[C@H](CCC(N)=O)NC(=O)[C@H](CCCNC(=N)N)NC(=O)[C@H](CO)NC1=O)C(=O)N[C@@H](CC(C)C)C(=O)N[C@@H](CCC(=O)O)C(=O)N1CCC[C@H]1C(=O)N3)NC(=O)[C@H](CCCCN)NC(=O)CNC(=O)[C@H](CC(N)=O)NC(=O)[C@H](CCSC)NC2=O [K27A] (H-GVIINVKCKISRQCLEPCKKAGMRFGACMNGKCHCTPK-OH; disulfide 8-28, 14-33, 18-35)
- IC50 [1]: 1.58 nM
- IC50 [2]: 1.23 nM
- Kv1.3 Selectivity (= Kv1.1/Kv.3 IC50) (human Kv1.3): 35

Structure (SMILES): CC[C@H](C)[C@@H]1NC(=O)[C@H](CCCCN)NC(=O)[C@@H](NC(=O)[C@H](CCCCN)NC(=O)[C@@H](NC(=O)[C@H](CC(N)=O)NC(=O)[C@@H](NC(=O)[C@@H](NC(=O)[C@@H](NC(=O)CN)C(C)C)[C@@H](C)CC)[C@@H](C)CC)C(C)C)CSSC[C@@H]2NC(=O)[C@H](CCCCN)NC(=O)CNC(=O)[C@H](Cc3ccccc3)NC(=O)[C@H](CCCNC(=N)N)NC(=O)[C@H](CCSC)NC(=O)CNC(=O)[C@H](C)NC(=O)[C@H](CCCCN)NC(=O)[C@H](CCCCN)NC(=O)[C@@H]3CSSC[C@@H](C(=O)N[C@H](C(=O)N4CCC[C@H]4C(=O)N[C@@H](CCCCN)C(=O)O)[C@@H](C)O)NC(=O)[C@H](Cc4c[nH]cn4)NC(=O)[C@H](CSSC[C@H](NC(=O)[C@H](CCC(N)=O)NC(=O)[C@H](CCCNC(=N)N)NC(=O)[C@H](CO)NC1=O)C(=O)N[C@@H](CCC(=O)O)C(=O)N[C@@H](CCC(=O)O)C(=O)N1CCC[C@H]1C(=O)N3)NC(=O)[C@H](CCCCN)NC(=O)CNC(=O)[C@H](CC(N)=O)NC(=O)[C@H](CCSC)NC2=O [L15E] (H-GVIINVKCKISRQCEEPCKKAGMRFGKCMNGKCHCTPK-OH; disulfide 8-28, 14-33, 18-35)
- IC50 [1]: 1.06 nM
- IC50 [2]: 0.785 nM
- Kv1.3 Selectivity (= Kv1.1/Kv.3 IC50) (human Kv1.3): 342

Structure (SMILES): CC[C@H](C)[C@@H]1NC(=O)[C@H](CCCCN)NC(=O)[C@@H](NC(=O)[C@H](CCCCN)NC(=O)[C@@H](NC(=O)[C@H](CC(N)=O)NC(=O)[C@@H](NC(=O)[C@@H](NC(=O)[C@@H](NC(=O)CN)C(C)C)[C@@H](C)CC)[C@@H](C)CC)C(C)C)CSSC[C@@H]2NC(=O)[C@H](CCCCN)NC(=O)CNC(=O)[C@H](Cc3ccccc3)NC(=O)[C@H](CCCNC(=N)N)NC(=O)[C@H](CCSC)NC(=O)CNC(=O)[C@H](C)NC(=O)[C@H](CCCCN)NC(=O)[C@H](CCCCN)NC(=O)[C@@H]3CSSC[C@@H](C(=O)N[C@H](C(=O)N4CCC[C@H]4C(=O)N[C@@H](CCCCN)C(=O)O)[C@@H](C)O)NC(=O)[C@H](Cc4c[nH]cn4)NC(=O)[C@H](CSSC[C@H](NC(=O)[C@H](CCC(N)=O)NC(=O)[C@H](CCCNC(=N)N)NC(=O)[C@H](CO)NC1=O)C(=O)N[C@@H](CC(C)C)C(=O)N[C@@H](CCC(=O)O)C(=O)N1CCC[C@H]1C(=O)N3)NC(=O)[C@H](CCCCN)NC(=O)CNC(=O)[C@H](CC(N)=O)NC(=O)[C@H](C)NC2=O [M29A] (H-GVIINVKCKISRQCLEPCKKAGMRFGKCANGKCHCTPK-OH; disulfide 8-28, 14-33, 18-35)
- IC50 [1]: 0.292 nM
- IC50 [2]: 0.447 nM
- Kv1.3 Selectivity (= Kv1.1/Kv.3 IC50) (human Kv1.3): 105
- IC50 (human Kv1.3; read-out: Kv1.3 (IC50)): 0.033 nM

Structure (SMILES): CC[C@H](C)[C@@H]1NC(=O)[C@H](CCCCN)NC(=O)[C@@H](NC(=O)[C@H](CCCCN)NC(=O)[C@@H](NC(=O)[C@H](CC(N)=O)NC(=O)[C@@H](NC(=O)[C@@H](NC(=O)[C@@H](NC(=O)CN)C(C)C)[C@@H](C)CC)[C@@H](C)CC)C(C)C)CSSC[C@@H]2NC(=O)[C@H](CCCCN)NC(=O)CNC(=O)[C@H](Cc3ccccc3)NC(=O)[C@H](CCCNC(=N)N)NC(=O)[C@H](CCSC)NC(=O)CNC(=O)[C@H](C)NC(=O)[C@H](CCCCN)NC(=O)[C@H](CCCCN)NC(=O)[C@@H]3CSSC[C@@H](C(=O)N[C@H](C(=O)N4CCC[C@H]4C(=O)N[C@@H](CCCCN)C(=O)O)[C@@H](C)O)NC(=O)[C@H](Cc4c[nH]cn4)NC(=O)[C@H](CSSC[C@H](NC(=O)[C@H](CCC(N)=O)NC(=O)[C@H](CCCNC(=N)N)NC(=O)[C@H](CO)NC1=O)C(=O)N[C@@H](CC(C)C)C(=O)N[C@@H](CCC(=O)O)C(=O)N1CCC[C@H]1C(=O)N3)NC(=O)[C@H](CCCCN)NC(=O)CNC(=O)[C@H](CC(N)=O)NC(=O)[C@H](CCCNC(=N)N)NC2=O [M29R] (H-GVIINVKCKISRQCLEPCKKAGMRFGKCRNGKCHCTPK-OH; disulfide 8-28, 14-33, 18-35)
- IC50 [1]: 7.68 nM
- IC50 [2]: 11.7 nM
- Kv1.3 Selectivity (= Kv1.1/Kv.3 IC50) (human Kv1.3): 30

Structure (SMILES): CC[C@H](C)[C@@H]1NC(=O)[C@H](CCCCN)NC(=O)[C@@H](NC(=O)[C@H](CCCCN)NC(=O)[C@@H](NC(=O)[C@H](CC(N)=O)NC(=O)[C@@H](NC(=O)[C@@H](NC(=O)[C@@H](NC(=O)CN)C(C)C)[C@@H](C)CC)[C@@H](C)CC)C(C)C)CSSC[C@@H]2NC(=O)[C@H](CCCCN)NC(=O)CNC(=O)[C@H](Cc3ccccc3)NC(=O)[C@H](CCCNC(=N)N)NC(=O)[C@H](CCSC)NC(=O)CNC(=O)[C@H](C)NC(=O)[C@H](CCCCN)NC(=O)[C@H](CCCCN)NC(=O)[C@@H]3CSSC[C@@H](C(=O)N[C@H](C(=O)N4CCC[C@H]4C(=O)N[C@@H](CCCCN)C(=O)O)[C@@H](C)O)NC(=O)[C@H](Cc4c[nH]cn4)NC(=O)[C@H](CSSC[C@H](NC(=O)[C@H](CCC(N)=O)NC(=O)[C@H](CCCNC(=N)N)NC(=O)[C@H](CO)NC1=O)C(=O)N[C@@H](CC(C)C)C(=O)N[C@@H](CCC(=O)O)C(=O)N1CCC[C@H]1C(=O)N3)NC(=O)[C@H](CCCCN)NC(=O)CNC(=O)[C@H](C)NC(=O)[C@H](CCSC)NC2=O [N30A] (H-GVIINVKCKISRQCLEPCKKAGMRFGKCMAGKCHCTPK-OH; disulfide 8-28, 14-33, 18-35)
- IC50 [1]: 0.637 nM
- IC50 [2]: 0.971 nM
- Kv1.3 Selectivity (= Kv1.1/Kv.3 IC50) (human Kv1.3): 14

Structure (SMILES): CC[C@H](C)[C@@H]1NC(=O)[C@H](CCCCN)NC(=O)[C@@H](NC(=O)[C@H](CCCCN)NC(=O)[C@@H](NC(=O)[C@H](CC(N)=O)NC(=O)[C@@H](NC(=O)[C@@H](NC(=O)[C@@H](NC(=O)CN)C(C)C)[C@@H](C)CC)[C@@H](C)CC)C(C)C)CSSC[C@@H]2NC(=O)[C@H](CCCCN)NC(=O)CNC(=O)[C@H](Cc3ccccc3)NC(=O)[C@H](CCCNC(=N)N)NC(=O)[C@H](CCSC)NC(=O)CNC(=O)[C@H](C)NC(=O)[C@H](CCCCN)NC(=O)[C@H](CCCCN)NC(=O)[C@@H]3CSSC[C@@H](C(=O)N[C@H](C(=O)N[C@@H](CCC(=O)O)C(=O)N[C@@H](CCCCN)C(=O)O)[C@@H](C)O)NC(=O)[C@H](Cc4c[nH]cn4)NC(=O)[C@H](CSSC[C@H](NC(=O)[C@H](CCC(N)=O)NC(=O)[C@H](CCCNC(=N)N)NC(=O)[C@H](CO)NC1=O)C(=O)N[C@@H](CC(C)C)C(=O)N[C@@H](CCC(=O)O)C(=O)N1CCC[C@H]1C(=O)N3)NC(=O)[C@H](CCCCN)NC(=O)CNC(=O)[C@H](CC(N)=O)NC(=O)[C@H](CCSC)NC2=O [P37E] (H-GVIINVKCKISRQCLEPCKKAGMRFGKCMNGKCHCTEK-OH; disulfide 8-28, 14-33, 18-35)
- IC50 [1]: 1.6 nM
- IC50 [2]: 0.239 nM
- Kv1.3 Selectivity (= Kv1.1/Kv.3 IC50) (human Kv1.3): 65
